Measured values as given in publication PMC3656107, “Polymorphisms in the F8 Gene and MHC-II Variants as Risk Factors for the Development of Inhibitory Anti-Factor VIII Antibodies during the Treatment of Hemophilia A: A Computational Assessment” (PLoS Computational Biology, 2013).
Several values for one entry are separate records, joined by “and”; a condition that tells them apart may be missing. Equal entries are not always repeated.

How the values were obtained:
MHC-II DRB1*15:03 [1] = biological target: T1, MHC-II DRB1*15:03 (Homo sapiens, UniProt P01903+P01911, Y59H); assay: Cell-free REVEAL class II stability assay; details: half-life of peptide-MHC-II complex (h, capped at 120) x Binding Score / 100, conformational ELISA
T1 construct: purchased ProImmune
Method: (§1) We measured the half-life of each peptide-MHC-II complex using REVEAL peptide-MHC affinity assays developed by ProImmune Ltd. (Oxford, UK). On-rates of peptides were measured over a 96-hr period at 10°C. A unique positive control peptide was used for each MHC-II allele. Samples of assembling peptide-MHC complexes were taken at defined time points and snap-frozen in liquid nitrogen prior to analysis. Assembly of peptide-MHC complexes was detected using a conformational ELISA involving an anti-HLA antibody. On-rates were calculated by fitting data to a one-phase association curve: [drawing 1] To determine the off-rates of the peptides, samples of dissociating complexes were taken at defined time points and frozen in liquid nitrogen prior to analysis. Percent denaturation of peptide-MHC complexes was also detected using a conformational ELISA. Off-rates were calculated by fitting data to a one-phase dissociation curve: [drawing 2] On- and off-rate half-life values (t1/2) were calculated from the rate constant (k) using the following equation: [drawing 3] To obtain a normalized stability score, the half-life values were multiplied by the Binding Score (see above) and divided by 100.

MHC-II DRB1*15:01 [2] = biological target: T2, MHC-II DRB1*15:01 (Homo sapiens, UniProt P01903+P01911); assay: Cell-free REVEAL class II stability assay; details: half-life of peptide-MHC-II complex (h, capped at 120) x Binding Score / 100, conformational ELISA
T2 construct: purchased ProImmune
Method: as §1

MHC-II DRB1*03:01 [3] = biological target: T3, MHC-II DRB1*03:01 (Homo sapiens, UniProt P01903+P01911, A100K/A102G/A103R/A169T/F55Y/I96L/K41T/L162R/M171V/P40S/Q125H/Q178H/Q39Y/R42S/S66N/T106N/T262R/W38E/Y61H); assay: Cell-free REVEAL class II stability assay; details: half-life of peptide-MHC-II complex (h, capped at 120) x Binding Score / 100, conformational ELISA
Method: as §1

MHC-II DRB1*04:01 [4] = biological target: T4, MHC-II DRB1*04:01 (Homo sapiens, UniProt P01903+P01911, A100K/A169T/F76Y/I96L/K127E/L162R/M171V/N62H/P40V/Q125Y/R42H/S133A/S149N/S66Y/V115G/V209L/W38E); assay: Cell-free REVEAL class II stability assay; details: half-life of peptide-MHC-II complex (h, capped at 120) x Binding Score / 100, conformational ELISA
Method: as §1

MHC-II DRB1*07:01 [5] = biological target: T5, MHC-II DRB1*07:01 (Homo sapiens, UniProt P01903+P01911, A100R/A102G/A103Q/D57E/D86V/E43K/F76Y/K127E/L162R/M171V/P40G/Q125H/Q99D/R33Q/R42Y/R54Q/S133A/S66F/T210M/V115G/Y107V/Y59L/Y89S); assay: Cell-free REVEAL class II stability assay; details: half-life of peptide-MHC-II complex (h, capped at 120) x Binding Score / 100, conformational ELISA
Method: as §1

MHC-II DRB1*11:01 [6] = biological target: T6, MHC-II DRB1*11:01 (Homo sapiens, UniProt P01903+P01911, A100R/A169T/A87E/I96F/K41T/L162R/M171V/P40S/Q125H/Q178H/Q39Y/Q99D/R42S/S66Y/T262R/V115G/W38E); assay: Cell-free REVEAL class II stability assay; details: half-life of peptide-MHC-II complex (h, capped at 120) x Binding Score / 100, conformational ELISA
Method: as §1

MHC-II DRB1*15:03 [7] = biological target: T1, MHC-II DRB1*15:03; assay: Cell-free REVEAL class II binding assay; details: signal of test peptide as percentage of allele-specific positive control peptide, fluorescence, conformation-specific monoclonal antibody
Text: (§2) We used a proprietary high throughput, REVEAL binding assay (ProImmune, www.proimmune.com) to estimate the binding of individual test peptides to the following MHC-II variants: DRB1*03:01, DRB1*04:01, DRB1*07:01, DRB1*11:01, DRB1*15:01 and DRB1*15:03 [28]. Detection of a peptide binding to each MHC-II protein is based on the presence or absence of the native conformation of the MHC-peptide complex. The peptide-MHC-II complex is detected by an increase in a fluorescence signal due to the binding of a specific monoclonal antibody. Each test-peptide is given a score relative to a positive control peptide, which is a known T-cell epitope for that MHC-II molecule. The score is reported quantitatively as a percentage of the signal generated by the test peptide compared with the positive control peptide. Assay performance is evaluated by including in each set of measurements an intermediate control peptide which is known to bind the MHC-II molecule but with a lower affinity than the positive control peptide. Note that the positive control peptide used to determine the binding score is different from the positive control peptides depicted in the figures, which are known T-cell epitopes identified in the FVIII molecule.

MHC-II DRB1*15:01 [8] = biological target: T2, MHC-II DRB1*15:01; assay: Cell-free REVEAL class II binding assay; details: signal of test peptide as percentage of allele-specific positive control peptide, fluorescence, conformation-specific monoclonal antibody
Text: as §2

MHC-II DRB1*03:01 [9] = biological target: T3, MHC-II DRB1*03:01; assay: Cell-free REVEAL class II binding assay; details: signal of test peptide as percentage of allele-specific positive control peptide, fluorescence, conformation-specific monoclonal antibody
Text: as §2

MHC-II DRB1*04:01 [10] = biological target: T4, MHC-II DRB1*04:01; assay: Cell-free REVEAL class II binding assay; details: signal of test peptide as percentage of allele-specific positive control peptide, fluorescence, conformation-specific monoclonal antibody
Text: as §2

MHC-II DRB1*07:01 [11] = biological target: T5, MHC-II DRB1*07:01; assay: Cell-free REVEAL class II binding assay; details: signal of test peptide as percentage of allele-specific positive control peptide, fluorescence, conformation-specific monoclonal antibody
Text: as §2

MHC-II DRB1*11:01 [12] = biological target: T6, MHC-II DRB1*11:01; assay: Cell-free REVEAL class II binding assay; details: signal of test peptide as percentage of allele-specific positive control peptide, fluorescence, conformation-specific monoclonal antibody
Text: as §2

T1 sequence (P01903 26-254, other chains not shown): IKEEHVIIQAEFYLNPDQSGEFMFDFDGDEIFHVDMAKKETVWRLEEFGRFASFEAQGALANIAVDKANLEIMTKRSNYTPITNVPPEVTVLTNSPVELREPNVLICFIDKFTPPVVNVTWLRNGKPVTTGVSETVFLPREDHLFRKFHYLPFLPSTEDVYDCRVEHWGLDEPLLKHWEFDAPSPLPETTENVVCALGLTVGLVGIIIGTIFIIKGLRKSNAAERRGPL
T6 sequence (P01903 26-254 limits assumed, other chains not shown): as the sequence (P01903 26-254, other chains not shown) above
T3 sequence (P01903 26-254 limits assumed, other chains not shown): as the sequence (P01903 26-254, other chains not shown) above

Sequence	Stability Index (MHC-II DRB1*15:03 [1])	Stability Index (MHC-II DRB1*15:01 [2])	Stability Index (MHC-II DRB1*03:01 [3])	Stability Index (MHC-II DRB1*04:01 [4])	Stability Index (MHC-II DRB1*07:01 [5])	Stability Index (MHC-II DRB1*11:01 [6])	Binding Score (MHC-II DRB1*15:03 [7])	Binding Score (MHC-II DRB1*15:01 [8])	Binding Score (MHC-II DRB1*03:01 [9])	Binding Score (MHC-II DRB1*04:01 [10])	Binding Score (MHC-II DRB1*07:01 [11])	Binding Score (MHC-II DRB1*11:01 [12])
AHRTPMPKIQNVSSS [synthetic wild type FVIII 15 mer peptide, region of ns-SNP R776G]	0.1	0.1	0.0	0.1	0.0	0.0	0.4%	0.0%	0.0%	1.3%	0.0%	0.2%
ASEGAEYDDQTSQRE [synthetic wild type FVIII 15 mer peptide]	0.0	0.0	0.0	0.0	0.0	0.0	0.0%	0.0%	0.0%	0.0%	0.0%	0.0%
AVGVSYWKASEGAEY [synthetic wild type FVIII 15 mer peptide]	0.0	1.0	0.0	0.4	0.0	0.0	0.1%	17.0%	0.0%	2.0%	0.0%	0.3%
AWRPQVNNPKEWLQV [synthetic wild type FVIII 15 mer peptide]	0.1	0.6	0.0	10.2	0.0	0.0	0.2%	0.5%	0.0%	17.7%	0.0%	0.1%
DGAYAPVLQDFRSLN [synthetic wild type FVIII 15 mer peptide, region of ns-SNP D1241E]	0.0	0.0	2.0	0.1	0.0	0.0	0.1%	0.0%	11.1%	0.7%	0.1%	0.2%
DIEKTDPWFAHRTPM [synthetic wild type FVIII 15 mer peptide, region of ns-SNP R776G]	0.0	0.2	0.0	0.4	0.0	0.2	0.1%	2.6%	0.0%	7.6%	0.0%	7.3%
DVRPLYSRRLPKGVK [synthetic wild type FVIII 15 mer peptide, region of ns-SNP R484H]	2.8	67.4	0.2	0.0	0.2	3.0	2.4%	56.2%	0.1%	0.2%	0.2%	16.9%
EWLQVDFQKTMKVTG [synthetic wild type FVIII 15 mer peptide, region of ns-SNP M2238V]	2.3 and 1.6	–	33.3 and 31.3	4.8 and 5.4	0.1 and 0.2	16.4 and 16.2	24.1% and 17.6%	–	57.0% and 65.6%	26.4% and 28.1%	0.1% and 0.2%	157.4% and 152.7%
FSSLYISQFIIMYSL [synthetic wild type FVIII 15 mer peptide]	0.1	28.0	0.0	0.4	0.0	0.0	0.3%	23.3%	0.6%	1.5%	0.0%	0.3%
GITDVRPLYSRRLPK [synthetic wild type FVIII 15 mer peptide, region of ns-SNP R484H]	3.1	34.9	3.7	0.1	0.6	0.6	2.6%	29.1%	10.8%	0.8%	2.0%	13.2%
NPPIIARYIRLHPTH [synthetic wild type FVIII 15 mer peptide]	18.2	1374.9	0.0	3.1	0.2	6.3	15.2%	–	0.4%	5.0%	0.2%	76.5%
PKEWLQVDFQKTMKV [synthetic wild type FVIII 15 mer peptide, region of ns-SNP M2238V]	0.0	–	–	0.3 and 0.2	0.0	0.3 and 0.2	0.0%	0.4% and 0.9%	36.8% and 60.5%	5.1% and 4.1%	0.0%	8.6% and 4.2%
